From PMC10912603 (Food Chemistry: X, 2024)
pKd: −log10 of the molar value.

How the values were obtained:
[1] = system: anti-EUGs mAb; assay: broad-spectrum indirect competitive ELISA; format: binding, mice; settings: for CR (cross-reactivity): CR=[(IC50 eugenol)/(IC50 analog)]×100%; for LOD (IC10) / linear range (IC20–IC80): in buffer solution
[2] = National Toxicology Program; ref Li et al., 2015; cited from earlier work
[3] = ref Li et al., 2015; cited from earlier work
[4] = system: anti-EUGs mAb; assay: antibody affinity by saturation concentration method; format: binding, mice; settings: mAb to eugenol
[5] = system: 1B5 mAb; settings: previously reported mAb; ref [2] Lei et al., 2023; cited from earlier work

Compound	CR (cross-reactivity) [1] [%]	LOD (IC10) [1] [ng/mL]	linear range (IC20–IC80) [1] [ng/mL]	further results
CC(C)c1cccc(C(C)C)c1O [Propofol]	<0.4	–	–	–
CCc1ccc(O)c(OC)c1 [4-Ethyl-2-methoxyphenol]	8.7	–	–	–
Oc1ccccc1O [Catechol]	<0.4	–	–	–
CCOC(=O)c1ccc(N)cc1 [Benzocaine]	<0.4	–	–	–
CCCCNc1ccc(C(=O)OCCN(C)C)cc1 [Tetracaine]	<0.4	–	–	–
COc1cc(C=O)ccc1O [Vanillin]	<0.4	–	–	–
C/C=C/c1ccc(OC)c(OC)c1 [Methyl isoeugenol]	8679.5	0.02	0.06 to 3.04	–
C=CCc1ccc(OC)c(OC)c1 [Methyl eugenol]	4773.8	0.06	0.15 to 4.30	liver cancer risk [2]: potential to elevate the risk of liver cancer
COc1ccc(C=O)cc1OC [Veratraldehyde]	<0.4	–	–	–
COc1ccccc1O [Guaiacol]	<0.4	–	–	–
CCOC(=O)c1cccc(N)c1.CS(=O)(=O)O [Tricaine methanesulfonate]	<0.4	–	–	–
C=CCc1ccc(O)c(OC)c1 [Eugenol]	100	3.16	7.92 to 184.05	IARC carcinogen category [3]: Group 3 carcinogen; dissociation constant Ka ([4]; Ka is the inverse of Kd): 1.3e+09 L/mol; pKd ([4]; read-out: affinity constant Kd): 9.11; IC50 of mAb 1B5 [5]: 9.23 ng/mL
Isoeugenol	25460.0	0.00935	0.026 to 0.865	–
